{"source": "paper PMC6960228", "about": "“Ethoxysanguinarine, a Novel Direct Activator of AMP-Activated Protein Kinase, Induces Autophagy and Exhibits Therapeutic Potential in Breast Cancer Cells” (Frontiers in Pharmacology, 2020)", "key": {"T47D": {"test_system": "T47D", "test": "MTT cytotoxicity assay", "format": "cell-based", "settings": "Homo sapiens, 24 h, means ± SD of quadruplicate determinations", "method": "Cells were seeded into 96-well plate and pre-cultured for 24 h, then treated with Eth for 24. Cell cytotoxicity was determined by MTT assay. The absorbance was measured at 490 nm by automated microplated reader (BioTek Instruments, Inc., Winooski, VT, USA), and the cell death rate was calculated as followed: inhibition rate (%) = (average A490 of the control group − average A490 of the experimental group)/(average A490 of the control group − average A490 of the blank group) × 100%. Cell viability was estimated by trypan blue dye exclusion."}, "[1]": {"test_system": "MCF-7, MDA-MB-231, and MDA-MB-436 cells", "test": "Soft-agar colony formation assay", "format": "cell-based, human", "settings": "2 weeks", "method": "Cells were suspended in 1 mL of L-15 or DMEM containing 0.3% low-melting-point agarose (Amresco, Cleveland, Oh, USA) and 10% FBS, and plated on a bottom layer containing 0.6% agarose and 10% FBS in 6-well plate in triplicate. After 2 weeks, plates were stained with 0.2% gentian violet and the colonies were counted under light microscope (IX70; Olympus Corporation, Tokyo, Japan) after 2 weeks."}, "MCF-10A": {"test_system": "MCF-10A", "test": "MTT cytotoxicity assay", "format": "cell-based, human", "source_text": "Human BC cell lines MCF-7, MDA-MB-231, DMA-MB-436, SK-BR3, MDA-MB-468, MDA-MB-453, and MDA-MB-435S and non-tumorigenic MCF-10A human mammary epithelial cells were obtained from American Type Culture Collection (ATCC; Manassas, VA, USA). MCF-7, SK-BR3, MDA-MB-231, and MDA-MB-436 cells were maintained in Dulbecco’s modified Eagle’s medium (DMEM; high glucose; Gibco; Thermo Fisher Scientific, Inc., Waltham, MA, USA) supplemented with 10% fetal bovine serum (FBS; HyClone; Logan, UT, USA) and antibiotics and incubated in a humidified atmosphere with 5% CO2 at 37°C. MDA-MB-468, MDA-MB-453, and MDA-MB-435S cells were maintained in Leibovitz’s L-15 (Gibco) supplemented with 10% FBS and antibiotics and incubated in a humidified atmosphere without CO2 at 37°C. MCF-10A cells were maintained in DMEM/F12 medium containing 5% horse serum (HS), insulin ([…]), epidermal growth factor (EGF, 20 ng/mL), choleratoxin ([…]), hydrocortisone ([…]), penicillin (50 U/mL), and streptomycin (50 U/mL), and incubated in a humidified atmosphere with CO2 at 37°C.\nCells were seeded into 96-well plate and pre-cultured for 24 h, then treated with Eth for 24. Cell cytotoxicity was determined by MTT assay. […]"}, "[2]": {"test_system": "LC3-II and Beclin-1 in MCF-7, MDA-MB-231, and MDA-MB-436 cells", "test": "Western blot of autophagy markers", "format": "cell-based, human", "settings": "dose- and time-dependent", "method": "Cells were lysed in radioimmunoprecipitation assay buffer containing 50 mM Tris, pH 8.0, 150 mM NaCl, 0.1% SDS, 0.5% sodium deoxycholate, 1% NP-40, 1 mM DTT, 1 mM NaF, 1 mM sodium orthovanadate, 1 mM phenylmethylsulfonyl fluoride (PMSF; Sigma-Aldrich; Merck KGaA), and 1% protease inhibitors cocktail (EMD Millipore, Billerica, MA, USA). Protein concentration was determined using the Bradford method. Equal amounts of sample (25 µg) were separated by SDS-PAGE (8–12% gels). Electrophoresed proteins were then transferred onto polyvinylidene fluoride membranes (EMD Millipore, Billerica, MA, USA). The membranes were blocked with 5% skimmed milk in Tris-buffered saline at room temperature for 1 h. Following blocking, membranes were incubated overnight at 4°C with primary antibodies and then rinsed with Tris-buffered saline with Tween 20. […]\nFigure 2 Eth induces autophagy in BC cells. […] (C): MCF-7, MDA-MB-231, or MDA-MB-436 cells transfected with pQCXIP-GFP-LC3 plasmid were treated with increasing concentrations of Eth for 24 h, and assessed by immunoﬂuorescence analyses. […] (D): MDA-MB-231 or MDA-MB-436 cells transfected with pQCXIP-GFP-LC3 plasmid were treated with Eth (2.0 µM) and/or 3-MA (1 mM) for 24 h, and assessed by immunoﬂuorescence analyses. […] (F): MCF-7, MDA-MB-231, or MDA-MB-436 cells were treated with Eth (3.5 µM, 3.0 µM, or 3.0 µM) and/or 3-MA (1 mM) for 24 h and analyzed by MTT assay. […]"}}, "data": [{"smiles": "CCOC1c2c(ccc3c2OCO3)-c2ccc3cc4c(cc3c2N1C)OCO4", "note": "(centres unmarked) [Eth, Ethoxysanguinarine]", "values": [{"measurement": "IC50", "setting": "T47D", "value": "9.15 ± 1.83", "unit": "µM"}, {"measurement": "clonogenic ability (colony formation)", "setting": "[1]", "value": "significantly inhibited the clonogenic ability"}, {"measurement": "IC50", "setting": "MCF-10A; Homo sapiens, MCF-10A, 24 h, MTT assay, means ± SD of quadruplicate determinations", "value": "12.3 ± 2.05", "unit": "µM"}, {"measurement": "sensitivity to Eth compared with the BC cell lines", "setting": "MCF-10A; normal human mammary epithelial cell line MCF-10A", "value": "less sensitive"}, {"measurement": "accumulation of LC3-II and Beclin-1", "setting": "[2]", "value": "induced the accumulation of LC3-II and Beclin-1"}]}]}
